Test [1] has as its system p21waf1/cip1. Put plainly: Immuno-blotting of p21waf1/cip1. Conditions: 10 mM AMPKI, 10 mM AICAR. It counts as cell-based, human. As for the experimental part:
(§1) (A) and (B): Young and senescent cells were serum-starved for 2 days, followed by treatment with 10 mM of AMPK inhibitor […]) or 10 mM of AMPK activator AICAR(B) for 4 days. Proteins were extracted from the treated cells and the levels of AMPKα and p-Thr172-AMPKα, total p53, p-Ser15-p53 and […] measured by immuno-blotting. (C) and (D): Young cells (C) and senescent cells (D) were treated with 10 mM AMPKI or 10 mM AICAR and cultured for 4 days, followed by measurement of cell proliferation by cell counting. At this time, the experiment was repeated three times (p<0.001). (A) and (B) are photographs illustrating the results of immuno-blotting. Precisely, sub-cultured young cells (PD 18: A) and senescent cells (PD 64: B) were treated with 30 μM of LPA […] and ACI singly or together, followed by further culture for 1, 2, and 4 days. Proteins were extracted from the cultured cells and the levels of AMPKα, […] β-actin were quantified by immuno-blotting. (A) and (B) are photographs illustrating the results of immuno-blotting. Precisely, senescent cells (PD 64) were pre-treated with 10 mM of PKA inhibitor Rp-cAMP for one hour, followed by treatment with LPA(A) or ACI(B). After culturing the cells for 1, 2, and 4 days, proteins were extracted from the cultured cells and the levels of AMPKα, […] β-actin were quantified by immuno-blotting using 45 μg of the protein. To analyse protein expression, human fibroblasts were lysed in cold lysis buffer (25 mM Hepes, pH 8.0, 150 mM NaCl, 1 mM EDTA, 1 mM Na3VO4, 1 mM NaF, 1% Triton X-100 and protease inhibitors), followed by centrifugation at 4° C. at 9,000 rpm for 10 minutes to obtain supernatant. Protein in the extract was quantified […]. SDS-PAGE electrophoresis was performed with equal amount of the protein (45 μg) to separate. The separated protein was transferred onto NC membrane from the electrophoresis gel. Non-specific protein binding was blocked by blocking the blot (transferred NC membrane) using TTBS […] containing 5% skim milk for one hour. Then, antigen-antibody reaction was induced with diluted primary antibody at 4° C. for overnight. The blot was washed with TTBS, followed by reaction with horseradish peroxidase conjugated anti-IgGs diluted in TTBS containing 5% skim milk (1:5000) at room temperature for one hour. The blot was washed again with TTBS to eliminate non-specific binding of antigen-antibody. Photographs were developed/printed on X-ray film (Kodak) using ECL kit (Pierce) containing peroxidase substrate to identify each protein.

The test system of test [2] is p-Ser15-p53. Put plainly: Immuno-blotting of p-Ser15-p53. The note with it: 10 mM AMPKI, 10 mM AICAR. Type of test: cell-based, human. Here is the method: as §1
Test [3] deals with p-Thr172-AMPKα. Put plainly: Immuno-blotting of p-Thr172-AMPKα. Type of test: cell-based, human. Conditions: 30 μM LPA, 300 μM ACI, 10 mM AMPKI, 10 mM AICAR, up to day 4. Here is the method:
as §1

Test [4] concerns senescent cells (human fibroblasts). As to the kind of experiment: Cell proliferation by counting live cells (trypan blue), senescent cells. Type of test: cell-based. Conditions: serum-starved 2 days, counted day 1, 2, 4, 30 μM LPA, 300 μM ACI, 10 mM AMPKI, 10 mM AICAR. As for the experimental part:
(§2) Human fibroblasts were prepared by primary culture of foreskin of a newborn baby (Boyce and Ham, 1983). The primary culture was performed in DMEM supplemented with 10% FBS and 1% antibiotics. The protein contents of young cells from the early stage of sub-culture, with a population doubling (PD) of less than 25, were compared to those of at least PD 65-70 senescent cells. […] In senescent cells, the activity of beta-galactosidase was increased and cell proliferation was reduced (Yeo et al., 2000).
(§3) Prior to LPA and ACI treatment, cells were grown for 1-2 days to 60-70% sub-confluence in DMEM-containing culture medium, and then serum-starved to quiescence (that is Go/G1 arrest) by incubation in a serum-free medium containing 0.1% bovine serum albumin (BSA) for 2 days. Young and senescent cells were treated with LPA, ACI, LPA+ACI, AMPKI and AICAR, respectively. Live cells were measured after staining the cells with trypan blue on day 1, day 2 and day 4 to confirm cell proliferation.
(§4) Cell proliferation and cAMP level were increased by LPA in senescent cells (Yeo et al., 2002). The AC inhibitor (ACI) was added to reduce cAMP which had been increased by LPA. And then, cell proliferation was investigated. Cells were cultured in serum-free medium for 2 days to arrest them in G0/G1 phase. Then, the cells were treated with LPA, ACI or LPA+ACI. Total cell number was measured on day 1, day 2 and day 4, or the cells entered into S phase were counted to evaluate cell proliferation. When young cells were treated with 300 μM of ACI, cell proliferation was reduced, compared with control (FIG. 1A). In the meantime, when senescent cells were treated with 300 μM of ACI, cell proliferation was increased, compared with control (FIG. 1B).

Test [5] has as its system young cells (human fibroblasts). As to the kind of experiment: Cell proliferation by counting live cells (trypan blue), young cells. It counts as cell-based. The note with it: serum-starved 2 days, counted day 1, 2, 4, 30 μM LPA, 300 μM ACI, 10 mM AMPKI, 10 mM AICAR. As for the experimental part:
as §2, §3, §4

The mark [6] stands for this setting: senescent cells, 30 μM LPA, 300 μM ACI.

For `NC(=O)c1ncn([C@@H]2O[C@H](CO)[C@@H](O)[C@H]2O)c1N` [AICAR], the “p21 expression (immuno-blotting)” value in test [1] (setting [6]) was “increased”; in test [1] (young cells, 4 days), “increased”. Besides, the p-Ser15-p53 expression entry in test [2] (setting [6]) is on record as “increased”; in test [2] (young cells, 4 days), “increased”. In addition, the Thr172-AMPKα phosphorylation entry in test [3] (senescent cells) and in test [3] (young cells) was “increased” each time. Besides, the “cell proliferation (cell number) compared with control” value in test [4] and in test [5] was “suppressed” each time.

The record behind these values is US20110124607A1, “COMPOSITION FOR REGULATION CELLULAR SENESCENCE COMPRISING LYSOPHOSPHATIDIC ACID AND INHIBITOR OF ADENYLYL CYCLASE AS ACTIVE INGREDIENTS” (priority 2008, published 2011).
